Patent US11912699B2, “Tau-protein targeting compounds and associated” (Arvinas Operations, Inc., priority 2019, dated 2024)
Where two headings read alike, the source gives them in different places.

What was measured:
P301L tau = biological target: T1, P301L tau (Homo sapiens, UniProt P10636, P618L); assay: Tau degradation in doxycycline-induced ChoK1-Tau P301L clone D1 cells; type: cell-based
T1 construct: expressed in transfected cells
Experimental: FIGS. 2A, 2B, and 2C. Tau targeting bifunctional molecules are potent P301L tau degraders in vitro, which depends upon both binding to the tau binding moiety and the E3 ligase binding moiety (ULM). (2A) Tau expression was induced by addition (+) of doxycycline (1 μg/ml) to ChoK1-Tau P301L clone D1 for 24 hours followed by a 24 hour doxycycline washout period where only bifunctional molecule was present.

[1] = system: seeding competent tau species (MC1-positive seeded conformational tau) in ChoK1-Tau P301L cells; assay: Tg2508 ex-vivo seeding of P301L CHO cells, MC1 high content image analysis; type: cell-based, Tg2508 mice; details: 24 hours
Experimental: FIGS. 4A, 4B, and 4C. […] Briefly, ChoK1-Tau P301L cells were treated with K18 tau preformed fibrils (PFFs) or extracts from Tg2508 brain samples. Seeded conformational tau species were detected by MC1 antibody positivity and quantified as MC1 spot average intensity per cell on the Image Express high content platform.

Tau P301L = biological target: T2, Tau P301L (Homo sapiens, UniProt P10636, P618L); assay: In vitro tau degradation assay in CHOK1 Tau P301L cells (sarkosyl insoluble tau, WES); type: cell-based; details: for remaining activity at 1 µM: CHO-K1, relative to DMSO doxycycline control, read-out: Tau Protein Degradation effect at 1 μM
T2 construct: expressed in transfected cells
In short: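 T-Rex CHOK1 clone D1 with doxycycline-inducible (1 μg/ml) Tau P301L treated 48 h with compound at 1 μM, doxycycline removed for the final 24 h. Sarkosyl-insoluble tau quantified by WES capillary electrophoresis with Tau1 antibody, expressed relative to DMSO doxycycline control and binned as ≤50% or >50% remaining.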

[2] = biological target: T3, seeded conformational tau (MC1) (Homo sapiens, UniProt P10636, P618L); assay: Tg2508 ex-vivo tau seeding assay in ChoK1-Tau P301L cells (MC1 high content imaging); type: cell-based, mice; details: 24 hours, MC1 spot intensity in ChoK1-Tau P301L cells
T3 construct: tissue Taconic; host or cells: cortex / hippocampus of Tg2508 transgenic mice, sarkosyl-insoluble fraction or brain extract
Experimental: FIGS. 4A, 4B, and 4C. Briefly, ChoK1-Tau P301L cells were treated with K18 tau preformed fibrils (PFFs) or extracts from Tg2508 brain samples (as described in Materials and Methods; PFF generation modified from Holmes et al. PNAS. 2014. Proteopathic tau seeding predicts tauopathy in vivo. Oct. 111 (41) E4376-85). Seeded conformational tau species are detected by MC1 antibody positivity and quantified as MC1 spot average intensity per cell on the Image Express™ high content platform.
In vitro tau Seeding Assay for FIGS. 4A, 4B, and 4C. Tau P301L T-Rex CHO Cells were plated on BioCoat Collagen 96 well microplates that were also poly-D-lysine coated. Media was removed, cells were washed with DPBS, trypsinized and plated at 50,000 cells per mL with Doxycycline […] and no doxycycline control for 24 hours. […]

pathologic tau [3] = biological target: T4, pathologic tau (Homo sapiens, UniProt P10636, P618L); assay: Pathologic tau in Tg2508 brain after intravenous dosing, measured by Wes capillary gel electrophoresis; type: in vivo, Tg2508 tauopathy mice; details: 15, 3, 1 or 0.3 mpk intravenous, 24 hours post dose, Tg2508 hippocampi
T4 construct: tissue Taconic; host or cells: cortex / hippocampus of Tg2508 transgenic mice, sarkosyl-insoluble fraction or brain extract
Experimental: (§1) FIGS. 3A and 3B. Exemplary bifunctional compounds degrade greater than 95% of pathologic tau in Tg2508 brain following parenteral administration in vivo. Tg2508 tauopathy mice were dosed (12 animals per group) with either 15 mpk exemplary compound 82 or 30 mpk exemplary compound 382 or vehicle intravenously. Twenty-four hours post dose, the animals were sacrificed, and cortical brain samples were analyzed for pathologic tau by Wes capillary gel electrophoresis. FIG. 3A is a graphical representation of the averaged analysis of pathologic tau shown for each animal tested comparing lanes from the vehicle control to either exemplary compound 82 or exemplary compound 382 as indicated in FIG. 3B. Greater than 95% reduction of pathologic tau was observed following treatment of the Tg2508 animals with either exemplary compound 82 or exemplary compound 382.
FIG. 5. […] Tg2508 animals were dosed with either 15, 3, 1 or 0.3 mpk of bifunctional compound 382 intravenously, as described in materials and methods. Hippocampal extracts were analyzed for either pathologic tau levels by Wes or bifunctional compound levels at each given dose as shown.

pathologic tau [4] = biological target: T4, pathologic tau; assay: In vivo tau degradation assay in Tg2508 tauopathy mice (sarkosyl insoluble tau, Wes); details: Tg2508 mice, 15, 3, 1 or 0.3 mpk parenterally, 24 hours post dose
Experimental: as §1, with “3B.” for “3B. Exemplary bifunctional compounds degrade greater than 95% of pathologic tau in Tg2508 brain following parenteral administration in vivo.”, “parenterally, as described below (Lewis et al., 2000).” for “intravenously.”, “sacrificed” for “sacrificed,”
FIG. 5. Tg2508 animals were dosed with either 15, 3, 1 or 0.3 mpk of bifunctional compound exemplary compound 382 parenterally, as described in materials and methods. Hippocampal extracts were analyzed for either pathologic tau levels by Wes or bifunctional compound levels at each given dose as shown.
In vivo tau Degradation Assay for FIGS. 3A, 3B and 5. […] Hetero-bifunctional degrader molecule concentrations were determined using standand liquid chromatography and mass spectroscopy methodologies (Drumetix).

[5] = 10-fold molar excess pomalidomide
[6] = similar competition (10-fold molar excess) with flortaucipir
[7] = single parenteral treatment 15 mpk
[8] = single parenteral treatment 30 mpk
[9] = CHOK1 Tau P301L cells, remaining tau in sarkosyl insoluble pellet, 48 hours with test compound at 1 μM, doxycycline removed for last 24 hours

T1 sequence (P10636 1-441 isoform P10636-8 P301L): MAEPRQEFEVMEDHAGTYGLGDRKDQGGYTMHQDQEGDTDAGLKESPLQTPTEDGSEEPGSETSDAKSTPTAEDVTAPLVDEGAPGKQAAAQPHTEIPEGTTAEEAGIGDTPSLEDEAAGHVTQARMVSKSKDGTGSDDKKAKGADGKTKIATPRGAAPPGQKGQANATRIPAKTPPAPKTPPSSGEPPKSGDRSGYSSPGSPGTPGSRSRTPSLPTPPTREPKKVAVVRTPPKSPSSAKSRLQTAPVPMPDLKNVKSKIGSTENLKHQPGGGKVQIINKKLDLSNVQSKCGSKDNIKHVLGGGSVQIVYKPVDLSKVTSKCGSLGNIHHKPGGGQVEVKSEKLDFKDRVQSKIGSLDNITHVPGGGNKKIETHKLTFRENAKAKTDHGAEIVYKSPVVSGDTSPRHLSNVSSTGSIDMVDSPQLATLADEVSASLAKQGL
T2 sequence (P10636 1-441 isoform P10636-8 P301L): as above
T4 sequence (P10636 1-383 isoform P10636-6 P243L): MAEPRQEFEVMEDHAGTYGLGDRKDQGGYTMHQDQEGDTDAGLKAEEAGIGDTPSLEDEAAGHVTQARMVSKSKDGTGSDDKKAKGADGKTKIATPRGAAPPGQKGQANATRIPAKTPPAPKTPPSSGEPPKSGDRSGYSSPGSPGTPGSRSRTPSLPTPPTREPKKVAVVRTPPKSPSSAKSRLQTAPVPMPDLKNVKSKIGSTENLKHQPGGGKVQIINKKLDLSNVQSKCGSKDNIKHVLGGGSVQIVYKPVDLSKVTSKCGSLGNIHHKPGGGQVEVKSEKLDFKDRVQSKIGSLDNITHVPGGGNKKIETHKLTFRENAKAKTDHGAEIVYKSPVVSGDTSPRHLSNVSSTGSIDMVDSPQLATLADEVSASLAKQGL
T3 sequence (P10636 1-383 isoform P10636-6 P243L): as above

## Cn1c2ccncc2c2ccc(-c3ccc(O[C@H]4C[C@H](OC5CCN(CCCCCOc6ccc7c(c6)C(=O)N(C6CCC(=O)NC6=O)C7=O)CC5)C4)nc3)cc21 (stereo partly drawn) [Compound 82]
P301L tau; 250 nM, 125 nM or 50 nM, ChoK1-Tau P301L clone D1, vs 0.1% DMSO
  degradation of tau: concentration-dependent degradation of tau
P301L tau; [5]
  tau degradation under competition with E3 ligase ligand pomalidomide: completely inhibited
P301L tau; ChoK1-Tau P301L clone D1, 24 h doxycycline (1 μg/ml) induction, then 24 h washout with only compound present, vs 0.1% DMSO
  DC50: < 50 nM
P301L tau; [6]
  tau degradation under competition with tau warhead ligand flortaucipir: Partial inhibition
[1]; [7]
  seeding competent tau species in Tg2508 cortical brain extracts (MC1 spot average intensity per cell): effectively degraded
Tau P301L; [5]
  tau degradation under competition with E3 ligase ligand: completely inhibited
Tau P301L; ChoK1-Tau P301L clone D1, doxycycline 1 μg/ml, 250, 125, 50 nM
  DC50: < 50 nM
Tau P301L; ChoK1-Tau P301L clone D1, 250 nM, 125 nM or 50 nM
  degradation of tau compared to 0.1% DMSO control: concentration-dependent degradation of tau
Tau P301L; [6]
  tau degradation under competition with tau warhead ligand: Partial inhibition
[2]; [7]
  seeding competent tau species in Tg2508 cortical brain extracts: effectively degraded

## Cn1c2ccncc2c2ccc(-c3ccc(N4CC(OC5CCN(CCCCCOc6ccc7c(c6)C(=O)N(C6CCC(=O)NC6=O)C7=O)CC5)C4)nc3)cc21 (stereo not drawn) [Compound 382, 2-(2,6-dioxopiperidin-3-yl)-5-((5-(4-((1-(5-(5-methyl-5H-pyrido[4,3-b]indol-7-yl)pyridin-2-yl)azetidin-3-yl)oxy)piperidin-1-yl)pentyl)oxy) isoindoline-1,3-dione]
Pathologic tau [3]
  pathologic tau levels in hippocampal extracts: A clear dose-response relationship is demonstrated
[1]; [8]
  seeding competent tau species in Tg2508 cortical brain extracts (MC1 spot average intensity per cell): effectively degraded
Tau P301L; remaining tau protein in sarkosyl insoluble pellet, CHOK1 Tau P301L cells treated 48 hours with test compound at 1 μM, doxycycline removed for the last 24 hours
  remaining activity at 1 µM: < 50%
Pathologic tau [4]
  concentration of tau protein in hippocampi: dose-dependently reduced
[2]; [8]
  seeding competent tau species in Tg2508 cortical brain extracts: effectively degraded

## CN(C)c1ccn2cc(-c3cnc(N4CCC(CCN5CCN(c6ccc7c(c6)C(=O)N(C6CCC(=O)NC6=O)C7=O)CC5)CC4)c(F)c3)nc2c1 (stereo not drawn) [Compound 680, 5-(4-(2-(1-(5-(7-(dimethylamino)imidazo [1,2-a]pyridin-2-yl)-3-fluoropyridin-2-yl)piperidin-4-yl)ethyl)piperazin-1-yl)-2-(2,6-dioxopiperidin-3-yl)isoindoline-1,3-dione]
Tau P301L; [9]
  remaining activity at 1 µM: < 50%

## O=C1CCC(N2Cc3c(cccc3N3CCN(CCC4CCN(c5ncc(-c6ccc7c8cnccc8n(C(F)F)c7c6)cc5F)CC4)CC3)C2=O)C(=O)N1 (stereo not drawn) [Compound 682, 3-(4-(4-(2-(1-(5-(5-(difluoromethyl)-5H-pyrido[4,3-b]indol-7-yl)-3-fluoropyridin-2-yl)piperidin-4-yl)ethyl)piperazin-1-yl)-1-oxoisoindolin-2-yl)piperidine-2,6-dione]
Tau P301L; [9]
  remaining activity at 1 µM: < 50%

## O=C1CCC(N2C(=O)c3ccc(N4CCC(OC5CCN(C[C@H]6C[C@H](Oc7ncc(-c8ccc9c%10cnccc%10n(C(F)F)c9c8)cc7F)C6)CC5)CC4)cc3C2=O)C(=O)N1 (stereo partly drawn) [Compound N637]
Tau P301L; [9]
  remaining activity at 1 µM: < 50%
